Patent US7538102B2, “Compounds for the treatment of Hepatitis C” (Bristol-Myers Squibb Company, priority 2007, dated 2009)

Columns and labels:
HCV replicon = HCV replicon FRET / luciferase assay; assay type: cell-based; settings: Hepatitis C virus; HCV replicon cells; 50% reduction in FRET or luciferase activity; read-out: EC50
Method: FRET Assay Preparation. The HCV FRET screening assay was performed in 96-well cell culture plates. The FRET peptide (Anaspec, Inc.) (Taliani et al., Anal. Biochem. 1996, 240, 60-67) contains a fluorescence donor, EDANS, near one end of the peptide and an acceptor, DABCYL, near the other end. The fluorescence of the peptide is quenched by […] resonance energy transfer (RET) between the donor and the acceptor, but as the NS3 protease cleaves the peptide the products are released from RET quenching and the fluorescence of the donor becomes apparent. The assay reagent was made as follows: 5× cell Luciferase cell culture lysis reagent from Promega (#E153A) diluted to 1× with dH2O, NaCl added to 150 mM final, the FRET peptide diluted to 20 μM final from a 2 mM stock.
To prepare plates, HCV replicon cells, with or without a Renilla luciferase reporter gene, were trypsinized and plated in a 96-well plate with titrated test compounds added in columns 3 through 12; columns 1 and 2 contained a control compound (HCV control inhibitor), and the bottom row contained cells with DMSO only. The plates were then placed in a CO2 incubator at 37° C.
Assays. Subsequent to addition of the test compounds described above (FRET Assay Preparation), at various times the plate was removed and Alamar blue solution (Trek Diagnostics, #00-100) was added to measure cellular toxicity. After reading in a Cytoflour 4000 instrument (PE Biosystems), plates were rinsed with PBS and then used for FRET assay by the addition of 30 ul of the FRET peptide assay reagent described above (FRET Assay Preparation) per well. The plate was then placed into the Cytoflour 4000 instrument which had been set to 340 excite/490 emission, automatic mode for up to 20 cycles and the plate read in a kinetic mode. Typically, the signal to noise using an endpoint analysis after the reads was at least three-fold. Alternatively, after Alamar blue reading, plates were rinsed with PBS, then used for luciferase assay using the Promega Dual-Glo Luciferase Assay System or the Promega EnduRen Live Cell Substrate assay.
Compound analysis was performed by quantification of the relative HCV replicon inhibition and the relative cytotoxicity values. To calculate cytoxicity values, the average Alamar Blue fluorescence signals from the control wells were set as 100% non-toxic. The individual signals in each of the compound test wells were then divided by the average control signal and multiplied by 100% to determine […]. To calculate the HCV replicon inhibition values, an average background value was obtained from the two wells containing the highest amount of HCV control inhibitor at the end of the assay period. These numbers were similar to those obtained from naive Huh-7 cells. The background numbers were then subtracted from the average signal obtained from the control wells and this number was used as 100% activity. The individual signals in each of the compound test wells were then divided by the averaged control values after background subtraction and multiplied by 100% to determine percent activity. EC50 values were calculated as the concentration which caused a 50% reduction in FRET or luciferase activity. The two numbers generated for the compound plate, percent cytoxicity and percent activity, were used to determine compounds of interest for further analysis.

HCV NS5B = target: T1, HCV NS5B (Hepatitis C virus genotype 1b, UniProt Q9WMX2); assay: HCV NS5B RdRp enzyme assay (standard or modified); assay type: biochemical; settings: HCV NS5B RdRp genotype 1b; standard or modified enzyme assay not specified; read-out: IC50
T1 construct: The protein was expressed with an 18 amino acid C-terminal truncation to enhance the solubility; made in house; host or cells: E. coli BL21(DE3)
Method: HCV NS5B RdRp cloning, expression, and purification. The cDNA encoding the NS5B protein of HCV, genotype 1b, was cloned into the pET21a expression vector. The protein was expressed with an 18 amino acid C-terminal truncation to enhance the solubility. The E. coli competent cell line BL21(DE3) was used for expression of the protein. Cultures were grown at 37° C. for ˜4 hours until the cultures reached an optical density of 2.0 at 600 nm. The cultures were cooled to 20° C. and induced with 1 mM IPTG. Fresh ampicillin was added to a final concentration of 50 μg/ml and the cells were grown overnight at 20° C.
Cell pellets (3 L) were lysed for purification to yield 15-24 mgs of purified NS5B. The lysis buffer consisted of 20 mM Tris-HCl, pH 7.4, 500 mM NaCl, 0.5% triton X-100, 1 mM DTT, 1mM EDTA, 20% glycerol, 0.5 mg/ml lysozyme, 10 mM MgCl2, 15 ug/ml deoxyribonuclease I, and Complete TM protease inhibitor tablets (Roche). After addition of the lysis buffer, frozen cell pellets were resuspended using a tissue homogenizer. To reduce the viscosity of the sample, aliquots of the lysate were sonicated on ice using a microtip attached to a Branson sonicator. The sonicated lysate was centrifuged at 100,000×g for 1 hr at 4° C. and filtered through a 0.2 μm filter unit (Corning).
The protein was purified using two sequential chromatography steps: Heparin sepharose CL-6B and polyU sepharose 4B (Pharmacia). The chromatography buffers were identical to the lysis buffer but contained no lysozyme, deoxyribonuclease I, MgCl2 or protease inhibitor and the NaCl concentration of the buffer was adjusted according to the requirements for charging the protein onto the column. Each column was eluted with a NaCl gradient which varied in length from 5-50 column volumes depending on the column type. After the final chromatography step, the resulting purity of the enzyme is >90% based on SDS-PAGE analysis. The enzyme was aliquoted and stored at −80° C.
Standard HCV NS5B RdRp enzyme assay. HCV RdRp genotype 1b assays were run in a final volume of 60 μl in 96 well plates (Corning 3600). The assay buffer is composed of 20 mM Hepes, pH 7.5, 2.5 mM KCl, 2.5 mM MgCl2, 1 mM DTT, 1.6 U RNAse inhibitor (Promega N2515), 0.01 mg/ml BSA (Sigma B6917), and 2% glycerol. All compounds were serially diluted (3-fold) in DMSO and diluted further in water such that the final concentration of DMSO in the assay was 2%. HCV RdRp genotype 1b enzyme was used at a final concentration of 28 nM. A polyA template was used at 6 nM, and a biotinylated oligo-dT12 primer was used at 180 nM final concentration. Template was obtained commercially (Amersham 27-4110). Biotinylated primer was prepared by Sigma Genosys. 3H-UTP was used at 0.6 μCi (0.29 μM total UTP). Reactions were initiated by the addition of enzyme, incubated at 30° C. for 60 min, and stopped by adding 25 μl of 50 mM EDTA containing SPA beads (4 μg/pl, Amersham RPNQ 0007). Plates were read on a Packard Top Count NXT after >1 hr incubation at room temperature.
Modified HCV NS5B RdRp enzyme assay. A modified enzyme assay was performed essentially as described for the standard enzyme assay except for the following: The biotinylated oligo dT12 primer was precaptured on streptavidin-coated SPA beads by mixing primer and beads in assay buffer and incubating at room temperature for one hour. Unbound primer was removed after centrifugation. The primer-bound beads were resuspended in 20 mM Hepes buffer, pH 7.5 and used in the assay at final concentrations of 20 nM primer and 0.67 μg/μl beads. Order of addition in the assay: enzyme (1.75 nM) was added to diluted compound followed by the addition of a mixture of template (0.36 nM), 3H-UTP (0.6 μCi, 0.29 μM), and primer-bound beads, to initiate the reaction; concentrations given are final. Reactions were allowed to proceed for 4 hours at 30° C.
IC50 values for compounds were determined using seven different [I]. […]

T1 sequence (Q9WMX2 2420-2992): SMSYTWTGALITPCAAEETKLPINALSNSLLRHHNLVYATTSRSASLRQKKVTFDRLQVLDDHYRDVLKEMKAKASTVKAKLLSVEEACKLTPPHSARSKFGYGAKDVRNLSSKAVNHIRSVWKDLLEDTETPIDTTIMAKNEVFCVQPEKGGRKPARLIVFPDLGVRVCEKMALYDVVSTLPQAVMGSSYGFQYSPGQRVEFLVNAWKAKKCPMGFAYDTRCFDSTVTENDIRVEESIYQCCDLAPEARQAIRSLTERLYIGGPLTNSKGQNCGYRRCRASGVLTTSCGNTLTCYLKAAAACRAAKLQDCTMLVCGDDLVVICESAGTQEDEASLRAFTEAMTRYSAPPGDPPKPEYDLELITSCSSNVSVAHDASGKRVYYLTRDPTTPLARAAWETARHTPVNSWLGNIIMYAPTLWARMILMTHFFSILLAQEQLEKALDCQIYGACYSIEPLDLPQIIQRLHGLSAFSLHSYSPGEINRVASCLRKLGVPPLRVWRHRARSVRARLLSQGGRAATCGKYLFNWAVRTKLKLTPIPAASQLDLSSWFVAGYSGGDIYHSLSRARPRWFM

| SMILES | EC50 (HCV replicon) [nM] | IC50 (HCV NS5B) [nM] |
| --- | --- | --- |
| COc1ccc2c(c1)C1CC1(C(=O)N1CCCN(Cc3cccnc3)CC1)Cn1c-2c(C2CCCCC2)c2ccc(C(=O)NS(=O)(=O)C3CC3)cc21 (stereo not drawn) | 3 to 1000 | 3 to 1000 |
| COc1ccc2c(c1)C1CC1(C(=O)N1CCCC1CN1CCCC1)Cn1c-2c(C2CCCCC2)c2ccc(C(=O)NS(=O)(=O)N(C)C)cc21 (stereo not drawn) | 3 to 1000 | 3 to 1000 |
| COc1ccc2c(c1)C1CC1(C(=O)N1CCNC(=O)CC1)Cn1c-2c(C2CCCCC2)c2ccc(C(=O)NS(=O)(=O)N(C)C)cc21 (stereo not drawn) | 3 to 1000 | 3 to 1000 |
| COc1ccc2c(c1)C1C[C@]1(C(=O)N1CCN(C)CC1c1ccccc1)Cn1c-2c(C2CCCCC2)c2ccc(C(=O)NS(=O)(=O)C(C)C)cc21 (stereo partly drawn) [drawing 78] | 3 to 1000 | 3 to 1000 |
| COc1ccc2c(c1)C1CC1(C(=O)N1CCN(C)C[C@H]1c1ccccc1)Cn1c-2c(C2CCCCC2)c2ccc(C(=O)NS(=O)(=O)C(C)C)cc21 (stereo partly drawn) | 3 to 1000 | 3 to 1000 |
| COc1ccc2c(c1)C1CC1(C(=O)N1CCN(CC(=O)N3CCCC3)CC1)Cn1c-2c(C2CCCCC2)c2ccc(C(=O)NS(=O)(=O)C(C)C)cc21 (stereo not drawn) | 3 to 1000 | 3 to 1000 |
| COc1ccc2c(c1)C1CC1(C(=O)N1CCNC(c3ccccc3)C1)Cn1c-2c(C2CCCCC2)c2ccc(C(=O)NS(=O)(=O)N(C)C)cc21 (stereo not drawn) | 3 to 1000 | 3 to 1000 |
| COc1ccc2c(c1)C1CC1(C(=O)N1CCN(C)CC1c1ccccc1)Cn1c-2c(C2CCCCC2)c2ccc(C(=O)NS(=O)(=O)N(C)C)cc21 (stereo not drawn) [drawing 65] |  | 3 to 1000 |
| COc1ccc2c(c1)C1CC1(C(=O)N1CCN(C)CC1c1ccccc1)Cn1c-2c(C2CCCCC2)c2ccc(C(=O)NS(=O)(=O)C(C)C)cc21 (stereo not drawn) [drawing 56] |  | 3 to 1000 |
| COc1ccc2c(c1)C1CC1(C(=O)N1CCCN(C(=O)OC(C)(C)C)CC1)Cn1c-2c(C2CCCCC2)c2ccc(C(=O)NS(=O)(=O)C3CC3)cc21 (stereo not drawn) |  | 3 to 1000 |
| COc1ccc2c(c1)C1C[C@]1(C(=O)N1CCN(C)CC1c1ccccc1)Cn1c-2c(C2CCCCC2)c2ccc(C(=O)NS(=O)(=O)C(C)C)cc21 (stereo partly drawn) [drawing 79] |  | 3 to 1000 |
| COc1ccc2c(c1)C1CC1(C(=O)N1CCN(C)CC1c1ccccc1)Cn1c-2c(C2CCCCC2)c2ccc(C(=O)NS(=O)(=O)N(C)C)cc21 (stereo not drawn) [drawing 64] |  | 3 to 1000 |
| COc1ccc2c(c1)C1CC1(C(=O)N1CCN(C)CC1c1ccccc1)Cn1c-2c(C2CCCCC2)c2ccc(C(=O)NS(=O)(=O)N(C)C)cc21 (stereo not drawn) [drawing 46] |  | 3 to 1000 |
| COc1ccc2c(c1)C1CC1(C(=O)N1CCCN(CCCN3CCOCC3)CC1)Cn1c-2c(C2CCCCC2)c2ccc(C(=O)NS(=O)(=O)C(C)C)cc21 (stereo not drawn) |  | 3 to 1000 |
